Reference: patent US12667574B2, “Paraxanthine-based bioactive composition and method of use thereof” (PX ING, LLC, priority 2021, dated 2026)

Tests used:
[1] = tested on: acetylcholine (Ach); test: Acetylcholine concentration (Example 3); type: in vivo, rats; details: for acetylcholine (Ach) concentration: oral 14 days
Description: (§1) Distilled water was provided ad libitum. […] Ltd (Bangalore, India).
(§2) 0.5% Carboxy Methyl Cellulose sodium was used as vehicle and the test item formulations were prepared daily. […] The last dose on day 14 was given 1 hour prior to testing.

[2] = tested on: male Swiss Albino mice; test: Treadmill endurance test (Example 2)
Description: Thirty-six 8-week-old male Swiss Albino mice were housed in an animal room at a constant temperature (22±3° C.) and humidity (30%-70%) under a 12:12 h light-dark cycle with standard laboratory diet (Purina 5L79, Rat and Mouse 18% protein; PMI Nutrition International, Brentwood, MO, USA). Distilled water was provided ad libitum. All animal experiments were reviewed and approved by the Institutional Animal Ethical Committee (IAEC) of Radiant Research Services Pvt. Ltd (Bangalore, India). All research was conducted in accordance with the guidelines of the committee for the purpose of control and supervision of experiments on animals.
The dose administered to the mice was calculated using US Food and Drug Administration for human equivalence doses (HED), assuming a human weight of 60 kg. […] 0.5% Carboxy Methyl Cellulose sodium was used as vehicle and the test item formulations were prepared daily. Dosing was conducted via oral gavage using disposable polypropylene syringes with sterilized stainless steel gavage tubes. The food intake and water consumption were monitored daily, and BW was recorded weekly. The last dose on day 28 was given 1 hour prior to testing.
On 28th day of each respective treatment, all animals were subjected to a muscle endurance test. Muscle endurance was accomplished on a motorized treadmill at a low to moderate intensity of 5-50 cm/sec as maximal running speed, an incline of ten degrees and a shock intensity of 0.2 mA, with the belt speed being increased by 5 cm/sec every two minutes until it reaches 50 cm/sec. Animals were subjected to the treadmill test until exhaustion. Distance traveled (cm) was measured as a marker of exercise performance, energy, and endurance.

[3] = tested on: male Swiss Albino mice; test: Treadmill endurance test (first Example 4, L-Theanine); type: in vivo
Description: as §1
The following HED were used in this study: 50 mg paraxanthine, (ENFINITY™ Ingenious Ingredients, L.P Lewisville, TX, USA; mouse dose: 10.275 mg/kg bw/day); 25 mg L-Theanine (mouse dose: 5.137 mg/kg bw), and 50 mg paraxanthine plus 25 mg L-Theanine. 0.5% Carboxy Methyl Cellulose sodium was used as vehicle and the test item formulations were prepared daily.
During the treatment period, exercise training was completed using a motorized treadmill (Exer 3/6, Columbus Instruments international, OH, USA) at a moderate intensity of 20 cm/sec as maximal running speed, an incline of ten degrees and a shock intensity of 0.2 mA, for ten minutes. The speed of the treadmill was manually adjusted by increasing the belt speed by 5 cm/sec every two minutes throughout the total duration of ten minutes. All animals were adapted to this procedure daily 60 minutes after dosing for five days in a week during the treatment period. 1.3. Treadmill Endurance Test
Muscle endurance was accomplished on a motorized treadmill at a low to moderate intensity of 5-50 cm/sec as maximal running speed, an incline of ten degrees and a shock intensity of 0.2 mA, with the belt speed being increased by 5 cm/sec every two minutes until it reaches 50 cm/sec. Animals were subjected to the treadmill test until exhaustion.

[4] = tested on: dopamine (dopa); test: Dopamine concentration (Example 3); type: in vivo, rats; details: for dopamine (dopa) concentration: oral 14 days
Description: as §1, §2

[5] = tested on: acetylcholine (Ach); test: Acetylcholine concentration (second Example 4); type: in vivo, rats; details: for acetylcholine (Ach) concentration: oral 14 days
Description: as §1
(§3) The following HED were used in this study: 50 mg paraxanthine, (ENFINITY™, Ingenious Ingredients, L.P Lewisville, TX, USA; rat dose: 5.141 mg/kg bw/day); 25 mg L-Theanine (rat dose: 2.570 mg/kg bw), and 50 mg paraxanthine plus 25 mg L-Theanine. 0.5% Carboxy Methyl Cellulose sodium was used as vehicle and the test item formulations were prepared daily. […] The last dose on day 14 was given 1 hour prior to testing.

[6] = tested on: glutathione (GSH); test: Glutathione level (second Example 4); type: in vivo, rats; details: for glutathione (GSH) level: oral 14 days
Description: as §1, §3

[7] = tested on: male Swiss Albino Wistar rats; test: Walter Morris Maze test (second Example 4, L-Theanine); type: in vivo; details: for escape latency: oral 14 days
Description: as §1, §3
The Walter Morris Maze test consisted of a circular pool in a room with geometric shapes on the wall serving as spatial cues. The pool, which is 70 cm in diameter and painted with black color, filled with 13 cm depth of 25±1° C. water. A platform (6 cm diameter) was placed into one quadrant of the pool and submerged 1 cm below the water surface. For the training, all rats were trained to locate the submerged platform in a constant location. The training day consisted of four trials. During training, a rat started at one of four starting points and allowed to swim until it located the platform or until 60 seconds had elapsed. The rat was allowed to remain on the platform for 15 seconds before being dried off and later was transferred to a holding cage. […] The animals were continuously trained 4 times at 4 starting points continued daily for 4 days, the main trial was conducted on the 15th & 16th day and the latency of escaping onto the platform was recorded.

[8] = tested on: brain derived neuro factor, BDNF; test: BDNF level, neuroplasticity (second Example 4); type: in vivo, rats; details: for BDNF: oral 14 days
Description: as §1, §3

[9] = tested on: dopamine (dopa); test: Dopamine concentration (second Example 4); type: in vivo, rats; details: for dopamine (dopa) concentration: oral 14 days
Description: as §1, §3

[10] = tested on: brain derived neuro factor, BDNF; test: BDNF level, neuroplasticity (Example 3); type: in vivo, rats; details: for BDNF: oral 14 days
Description: as §1, §2

[11] = tested on: glutathione (GSH); test: Glutathione level (Example 3); type: in vivo, rats; details: for glutathione (GSH) level: oral 14 days
Description: as §1, §2

[12] = tested on: male Swiss Albino Wistar rats; test: Walter Morris Maze test (Example 3); type: in vivo; details: for escape latency: oral 14 days
Description: Distilled water was provided ad libitum. […] Ltd (Bangalore, India). […] The last dose on day 14 was given 1 hour prior to testing. The Walter Morris Maze test consisted of a circular pool in a room with geometric shapes on the wall serving as spatial cues. The pool, which is 70 cm in diameter and painted with black color, filled with 13 cm depth of 25±1° C. water. A platform (6 cm diameter) was placed into one quadrant of the pool and submerged 1 cm below the water surface. For the training, all rats were trained to locate the submerged platform in constant location. The training day consisted of four trials. […] The rat was allowed to remain on the platform for 15 seconds before being dried off and later was transferred to a holding cage.

SMILES: Cn1c(=O)[nH]c2ncn(C)c2c1=O [paraxanthine, 1,7-Dimethyl-3H-purine-2,6-dione]
- acetylcholine (Ach) concentration ([1]; old rats): 59.78±2.61 U/mL
- increase in Ach compared to alpha-GPC ([1]; old rats): 5.1%
- increase in Ach compared to placebo ([1]; old rats): 23.2%
- increase in Ach compared to theobromine ([1]; old rats): 5.5%
- increase in Ach compared to theophylline ([1]; old rats): 8.0%
- acetylcholine (Ach) concentration ([1]; young rats): 66.83±2.38 U/mL
- increase in Ach compared to alpha-GPC ([1]; young rats): 1.4%
- increase in Ach compared to placebo ([1]; young rats): 23.9%
- increase in Ach compared to theobromine ([1]; young rats): 4.0%
- increase in Ach compared to theophylline ([1]; young rats): 4.6%
- increase of distance travelled compared to alpha-GPC ([2]; compared to alpha-GPC alone): 4.4%
- increase of distance travelled compared to control ([2]; compared to control (placebo)): 81%
- increase of distance travelled compared to theobromine ([2]; compared to theobromine): 6.3%
- increase of distance travelled compared to theophylline ([2]; compared to theophylline): 9.9%
- exercise performance, energy, and endurance (in words) ([2]; oral 28 days): significant improvements of exercise performance, energy, and endurance
- increase of distance travelled compared to L-Theanine ([3]; compared to L-Theanine alone): 4.9%
- increase of distance travelled compared to control ([3]; compared to control (placebo)): 81%
- exercise performance, energy, and endurance (in words) ([3]; oral 28 days): significant improvements of exercise performance, energy, and endurance
- distance travelled during treadmill exercise ([3]; oral once daily 28 days, HED 50 mg paraxanthine, 25 mg L-Theanine): 309.50±6.77 m
- dopamine (dopa) concentration ([4]; old rats): 516.85 ± 4.43 ng/L
- increase in dopa compared to alpha-GPC ([4]; old rats): 2.1%
- increase in dopa compared to placebo ([4]; old rats): 32.7%
- increase in dopa compared to theobromine ([4]; old rats): 2.8%
- increase in dopa compared to theophylline ([4]; old rats): 4.2%
- dopamine (dopa) concentration ([4]; young rats): 580.22 ± 5.33 ng/L
- increase in dopa compared to alpha-GPC ([4]; young rats): 3.0%
- increase in dopa compared to placebo ([4]; young rats): 23.7%
- increase in dopa compared to theobromine ([4]; young rats): 5.0%
- increase in dopa compared to theophylline ([4]; young rats): 6.7%
- acetylcholine (Ach) concentration ([5]; old rats): 59.78±2.61 U/mL
- increase in Ach compared to L-Theanine ([5]; old rats): 7.0%
- increase in Ach compared to placebo ([5]; old rats): 23.3%
- acetylcholine (Ach) concentration ([5]; young rats): 66.83±2.38 U/mL
- increase in Ach compared to L-Theanine ([5]; young rats): 6.4%
- increase in Ach compared to placebo ([5]; young rats): 23.9%
- glutathione (GSH) level ([6]; old rats): 25.57 ± 0.80 µg/mL
- increase in GSH compared to L-Theanine ([6]; old rats): 7.1%
- increase in GSH compared to placebo ([6]; old rats): 62.1%
- glutathione (GSH) level ([6]; young rats): 32.57 ± 0.84 µg/mL
- increase in GSH compared to L-Theanine ([6]; young rats): 2.6%
- increase in GSH compared to placebo ([6]; young rats): 64.1%
- escape latency ([7]; old rats (16-month-old)): 39.00 ± 1.90 s
- decrease of escape latency compared to L-Theanine ([7]; old rats): 12.7%
- decrease of escape latency compared to control ([7]; old rats): 33.7%
- escape latency ([7]; young rats (8-week-old)): 32.50 ± 1.38 s
- decrease of escape latency compared to L-Theanine ([7]; young rats): 15.2%
- decrease of escape latency compared to control ([7]; young rats): 40%
- BDNF ([8]; old rats): 842.7 ± 6.26 pg/mL
- increase in BDNF compared to L-Theanine ([8]; old rats): 6.8%
- increase in BDNF compared to placebo ([8]; old rats): 18.1%
- BDNF ([8]; young rats): 917 ± 5.21 pg/mL
- increase in BDNF compared to L-Theanine ([8]; young rats): 5.9%
- increase in BDNF compared to placebo ([8]; young rats): 22.7%
- dopamine (dopa) concentration ([9]; old rats): 516.85 ± 4.43 ng/L
- increase in dopa compared to L-Theanine ([9]; old rats): 9.3%
- increase in dopa compared to placebo ([9]; old rats): 32.7%
- dopamine (dopa) concentration ([9]; young rats): 580.22 ± 5.33 ng/L
- increase in dopa compared to L-Theanine ([9]; young rats): 9.8%
- increase in dopa compared to placebo ([9]; young rats): 23.7%
- BDNF ([10]; old rats): 842.68 ± 6.26 pg/mL
- increase in BDNF compared to alpha-GPC ([10]; old rats): 1.5%
- increase in BDNF compared to placebo ([10]; old rats): 18.1%
- increase in BDNF compared to theobromine ([10]; old rats): 3.1%
- increase in BDNF compared to theophylline ([10]; old rats): 3.8%
- BDNF ([10]; young rats): 917.05 ± 5.21 pg/mL
- increase in BDNF compared to alpha-GPC ([10]; young rats): 4.0%
- increase in BDNF compared to placebo ([10]; young rats): 22.7%
- increase in BDNF compared to theobromine ([10]; young rats): 5.4%
- increase in BDNF compared to theophylline ([10]; young rats): 4.9%
- glutathione (GSH) level ([11]; old rats): 25.57 ± 0.80 µg/mL
- increase in GSH compared to alpha-GPC ([11]; old rats): 3.4%
- increase in GSH compared to placebo ([11]; old rats): 62.1%
- increase in GSH compared to theobromine ([11]; old rats): 4.2%
- increase in GSH compared to theophylline ([11]; old rats): 5.5%
- glutathione (GSH) level ([11]; young rats): 32.57 ± 0.84 µg/mL
- increase in GSH compared to alpha-GPC ([11]; young rats): 2.6%
- increase in GSH compared to placebo ([11]; young rats): 64.1%
- increase in GSH compared to theobromine ([11]; young rats): 3.9%
- increase in GSH compared to theophylline ([11]; young rats): 9.4%
- escape latency ([12]; old rats (16-month-old)): 39.00 ± 1.90 s
- decrease of escape latency compared to alpha-GPC ([12]; old rats): 2.1%
- decrease of escape latency compared to control ([12]; old rats): 33.7%
- decrease of escape latency compared to theobromine ([12]; old rats): 7.9%
- decrease of escape latency compared to theophylline ([12]; old rats): 11.0%
- escape latency ([12]; young rats (8-week-old)): 32.50 ± 1.38 s
- decrease of escape latency compared to alpha-GPC ([12]; young rats): 6.7%
- decrease of escape latency compared to control ([12]; young rats): 40%
- decrease of escape latency compared to theobromine ([12]; young rats): 13.7%
- decrease of escape latency compared to theophylline ([12]; young rats): 14.5%
